From patent publication US20160174533A1 (priority 2009, published 2016)
Read-outs that look alike come from different tables or passages of the source.

How the values were obtained:
Cyp1a2 [1] = target: T1, Cyp1a2 (Mus musculus, UniProt P00186); conditions: WT mice; cited from earlier work
T1 sequence (P00186 2-513): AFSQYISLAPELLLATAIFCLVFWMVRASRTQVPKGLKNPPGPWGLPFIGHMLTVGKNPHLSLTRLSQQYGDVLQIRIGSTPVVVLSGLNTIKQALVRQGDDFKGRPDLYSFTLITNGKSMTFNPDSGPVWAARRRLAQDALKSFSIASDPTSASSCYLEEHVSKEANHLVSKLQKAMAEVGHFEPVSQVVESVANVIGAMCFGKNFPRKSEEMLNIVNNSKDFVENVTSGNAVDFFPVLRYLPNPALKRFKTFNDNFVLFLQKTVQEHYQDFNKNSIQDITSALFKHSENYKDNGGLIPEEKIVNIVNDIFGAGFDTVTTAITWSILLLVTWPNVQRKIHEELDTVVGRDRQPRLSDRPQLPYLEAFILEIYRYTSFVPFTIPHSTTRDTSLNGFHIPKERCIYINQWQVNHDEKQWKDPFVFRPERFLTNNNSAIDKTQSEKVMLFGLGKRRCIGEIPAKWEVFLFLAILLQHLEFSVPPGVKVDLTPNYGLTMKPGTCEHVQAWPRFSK

Cyp1a2 [2] = conditions: Cyp1a2-/- mice; cited from earlier work
Cyp3a [3] = conditions: cited from earlier work
Cyp3a [4] = conditions: cited from earlier work; remark: listed apart in the source
Cyp7b1 [5] = assay: DHEA metabolism in Cyp7b1 KO rats (transposon insertion)
Cyp7b1 [6] = conditions: liver and kidney of Cyp7b-/- mice; cited from earlier work
androgen receptors (AR) = target: T2, androgen receptors (AR) (Homo sapiens, UniProt P10275); conditions: cited from earlier work
T2 construct: expressed in transfected cells
T2 sequence (P10275 1-920): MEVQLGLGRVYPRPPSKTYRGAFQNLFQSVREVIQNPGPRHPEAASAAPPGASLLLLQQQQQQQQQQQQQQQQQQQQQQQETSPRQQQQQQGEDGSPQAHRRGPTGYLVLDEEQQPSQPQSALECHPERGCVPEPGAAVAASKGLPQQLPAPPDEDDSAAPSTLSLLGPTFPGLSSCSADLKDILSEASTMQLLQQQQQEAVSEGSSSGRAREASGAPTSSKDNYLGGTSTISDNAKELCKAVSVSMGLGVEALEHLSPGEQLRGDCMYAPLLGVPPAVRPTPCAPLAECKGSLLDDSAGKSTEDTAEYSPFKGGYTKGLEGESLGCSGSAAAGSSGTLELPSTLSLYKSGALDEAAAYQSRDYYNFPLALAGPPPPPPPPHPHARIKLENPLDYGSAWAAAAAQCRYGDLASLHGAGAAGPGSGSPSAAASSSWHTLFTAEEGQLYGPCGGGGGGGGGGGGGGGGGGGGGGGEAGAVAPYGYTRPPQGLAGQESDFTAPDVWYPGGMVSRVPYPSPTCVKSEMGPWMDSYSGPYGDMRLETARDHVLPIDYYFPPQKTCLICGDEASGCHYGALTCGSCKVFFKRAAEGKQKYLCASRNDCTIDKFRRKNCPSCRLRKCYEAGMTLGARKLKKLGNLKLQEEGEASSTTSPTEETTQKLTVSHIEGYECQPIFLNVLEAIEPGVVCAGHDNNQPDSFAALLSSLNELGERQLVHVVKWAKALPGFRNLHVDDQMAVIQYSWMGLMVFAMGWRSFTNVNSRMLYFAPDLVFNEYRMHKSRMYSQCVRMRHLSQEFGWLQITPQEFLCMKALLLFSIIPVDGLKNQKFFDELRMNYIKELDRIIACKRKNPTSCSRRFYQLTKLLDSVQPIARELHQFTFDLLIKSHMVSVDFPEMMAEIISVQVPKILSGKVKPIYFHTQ

ER-alpha = target: T3, ER-alpha (Homo sapiens, UniProt P03372); conditions: cited from earlier work
T3 construct: expressed in transfected cells
T3 sequence (P03372 whole entry): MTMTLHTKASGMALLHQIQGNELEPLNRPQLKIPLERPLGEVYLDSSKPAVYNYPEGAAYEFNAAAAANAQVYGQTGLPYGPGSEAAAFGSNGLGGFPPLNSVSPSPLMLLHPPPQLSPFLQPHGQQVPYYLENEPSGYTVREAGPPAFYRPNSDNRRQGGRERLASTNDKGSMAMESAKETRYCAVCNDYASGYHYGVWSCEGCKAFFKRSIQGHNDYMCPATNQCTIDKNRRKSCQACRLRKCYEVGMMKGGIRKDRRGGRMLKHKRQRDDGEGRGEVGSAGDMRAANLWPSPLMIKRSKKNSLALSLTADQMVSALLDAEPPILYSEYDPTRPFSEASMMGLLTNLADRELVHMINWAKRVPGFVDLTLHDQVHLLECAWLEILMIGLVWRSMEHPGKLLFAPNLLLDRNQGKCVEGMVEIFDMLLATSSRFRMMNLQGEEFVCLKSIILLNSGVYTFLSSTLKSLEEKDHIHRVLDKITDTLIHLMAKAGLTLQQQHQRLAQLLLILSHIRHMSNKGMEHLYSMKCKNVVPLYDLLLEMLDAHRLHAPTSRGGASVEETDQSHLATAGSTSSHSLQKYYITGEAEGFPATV

ER-beta = target: T4, ER-beta (Homo sapiens, UniProt Q92731); conditions: cited from earlier work
T4 construct: expressed in transfected cells
T4 sequence (Q92731 whole entry): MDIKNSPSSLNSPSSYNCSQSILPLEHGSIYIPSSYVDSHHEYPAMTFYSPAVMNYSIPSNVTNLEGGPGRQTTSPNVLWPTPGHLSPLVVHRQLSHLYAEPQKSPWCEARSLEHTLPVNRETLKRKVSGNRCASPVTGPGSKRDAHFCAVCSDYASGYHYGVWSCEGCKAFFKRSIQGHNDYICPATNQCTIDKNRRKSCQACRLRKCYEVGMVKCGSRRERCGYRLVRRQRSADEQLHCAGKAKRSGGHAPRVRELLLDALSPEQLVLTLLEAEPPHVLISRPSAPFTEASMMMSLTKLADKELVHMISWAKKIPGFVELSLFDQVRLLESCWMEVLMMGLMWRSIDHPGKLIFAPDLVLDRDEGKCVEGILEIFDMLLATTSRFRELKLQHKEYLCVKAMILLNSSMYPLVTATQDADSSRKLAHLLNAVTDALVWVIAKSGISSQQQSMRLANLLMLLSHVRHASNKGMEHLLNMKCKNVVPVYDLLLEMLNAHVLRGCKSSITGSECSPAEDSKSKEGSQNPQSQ

Cyp1a2 [7] = target: T5, Cyp1a2 (Homo sapiens, UniProt P05177); conditions: human populations; cited from earlier work
T5 sequence (P05177 1-516): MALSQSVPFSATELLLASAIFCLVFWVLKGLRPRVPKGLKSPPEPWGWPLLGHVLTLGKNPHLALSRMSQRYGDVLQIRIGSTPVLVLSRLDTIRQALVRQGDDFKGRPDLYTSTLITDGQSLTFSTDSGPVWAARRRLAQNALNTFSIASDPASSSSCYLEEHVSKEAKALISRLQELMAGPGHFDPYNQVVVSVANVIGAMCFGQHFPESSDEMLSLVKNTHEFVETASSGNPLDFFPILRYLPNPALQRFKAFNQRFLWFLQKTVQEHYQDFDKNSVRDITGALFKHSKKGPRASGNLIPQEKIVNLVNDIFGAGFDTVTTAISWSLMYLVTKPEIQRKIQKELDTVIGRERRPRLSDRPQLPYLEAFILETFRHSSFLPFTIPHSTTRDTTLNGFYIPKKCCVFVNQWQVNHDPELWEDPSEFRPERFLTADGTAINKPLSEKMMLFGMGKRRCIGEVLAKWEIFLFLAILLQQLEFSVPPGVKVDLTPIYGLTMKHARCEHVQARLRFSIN

Cyp2e1 [8] = conditions: Cyp2e1-/- mice; cited from earlier work
Cyp2e1 [9] = target: Cyp2e1 (Mus musculus, UniProt Q05421); conditions: mouse, in vivo, 400 mg/kg; cited from earlier work
Cyp2e1 (Mus musculus, UniProt Q05421), sequence (Q05421 whole entry): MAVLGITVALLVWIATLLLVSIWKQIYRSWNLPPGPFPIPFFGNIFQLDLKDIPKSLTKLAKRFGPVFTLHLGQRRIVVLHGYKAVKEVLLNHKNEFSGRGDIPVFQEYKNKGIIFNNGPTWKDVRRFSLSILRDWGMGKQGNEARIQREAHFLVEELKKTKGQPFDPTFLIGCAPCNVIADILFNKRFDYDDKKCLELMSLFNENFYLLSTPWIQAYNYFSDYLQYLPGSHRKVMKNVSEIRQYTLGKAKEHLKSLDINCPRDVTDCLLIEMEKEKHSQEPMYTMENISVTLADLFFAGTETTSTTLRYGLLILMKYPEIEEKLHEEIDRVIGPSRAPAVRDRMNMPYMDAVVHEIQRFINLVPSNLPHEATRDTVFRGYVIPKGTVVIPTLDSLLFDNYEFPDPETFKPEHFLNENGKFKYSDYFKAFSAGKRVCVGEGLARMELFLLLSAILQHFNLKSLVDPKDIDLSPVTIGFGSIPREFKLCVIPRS

What does the source list for `Clc1cc2c(cc1Cl)Oc1cc(Cl)c(Cl)cc1O2` [TCDD, 2,3,7,8-Tetrachlorodibenzo-p-dioxin]?
liver-to-adipose (L/F) ratio (Cyp1a2 [1]): 3.6; liver-to-adipose (L/F) ratio (Cyp1a2 [2]): 0.2

Which results are given for `CC(=O)O[C@@]12CO[C@@H]1C[C@H](O)[C@@]1(C)C(=O)[C@H](O)C3=C(C)[C@@H](OC(=O)[C@H](O)[C@@H](NC(=O)OC(C)(C)C)c4ccccc4)C[C@@](O)([C@@H](OC(=O)c4ccccc4)[C@H]21)C3(C)C` [docetaxel]?
oral bioavailability (Cyp3a [3]; Cyp3a-/- mice): 21.2%; oral bioavailability (Cyp3a [3]; WT mice): 8.1%; plasma docetaxel, Cyp3a-/- versus WT mice (Cyp3a [3]; after i.v. administration): 6.8 fold; plasma level of docetaxel, Cyp3a-/- versus WT mice (Cyp3a [3]; after oral administration): 17.7 fold; docetaxel metabolism (KO phenotype) (Cyp3a [3]; mice deficient for gene family Cyp3a): function are unable to metabolize docetaxel.; M-2 metabolite formation (Cyp3a [4]; Cyp3a-/- microsomes): not recognized; M-2 metabolite formation (Cyp3a [4]; WT microsomes): efficiently formed

Which “metabolism of DHEA to 7α-hydroxy-DHEA” value (Cyp7b1 [5]) does the source give for `C[C@]12CC[C@H](O)CC1=CC[C@@H]1[C@@H]2CC[C@]2(C)C(=O)CC[C@@H]12` [DHEA, dehydroepiandrosterone] here?
Its value is “unable to metabolize”.

What about the “DHEA conversion to 7D” value (Cyp7b1 [6]) of the same compound?
The value was “significantly altered”.

With `C[C@]12CC[C@H](O)CC1=C[C@@H](O)[C@@H]1[C@@H]2CC[C@]2(C)C(=O)CC[C@@H]12` [7-alpha-hydroxy-DHEA] as the compound, how does the receptor activation (androgen receptors (AR)) read?
The receptor activation was “activates”.

And the receptor activation (ER-alpha)?
Its receptor activation is “activates”.

And the receptor activation (ER-beta)?
The receptor activation was “activates”.

Which half-life (Cyp1a2 [7]) does the source give for `Cn1c(=O)c2c(ncn2C)n(C)c1=O` [Caffeine] here?
The half-life was 1.5 to 9.5 h.

With `CC(=O)Nc1ccc(O)cc1` [acetaminophen] as the compound, how does the dose survived (Cyp2e1 [8]) read?
The dose survived was “up to 400 mg/kg”.

And the “mice that succumb to toxicity and die” value (Cyp2e1 [9])?
Its value is “over 50%”.
